Test results as given in PMC10054240, “New Inhibitors of Respiratory Syncytial Virus (RSV) Replication Based on Monoterpene-Substituted Arylcoumarins” (Molecules, 2023).

Columns and labels:
RSV type B = test: Inhibition of reproduction of RSV type B; type: cell-based; conditions: human respiratory syncytial virus
Experimental: The antiviral activity against the respiratory syncytial virus was assessed in a series of 3-fold dilutions of test compounds, starting from ½CC50, which were added to HEp-2 cell culture, at a double concentration, 100 μL per well, followed by addition of 100 μL of the virus in a series of 10-fold dilutions. Cells were incubated at 37 °C and 5% CO2 for 1 h. Then, the virus was washed out, and the compounds were again added at a single concentration and incubated at 37 °C and 5% CO2 for 6 days. For the enzyme-linked immunosorbent assay (ELISA), cell culture was fixed with cold 80% acetone at −20 °C for 15 min, and then washed with phosphate buffered saline containing 0.05% Tween 20. Next, a solution of primary mouse anti-RSV F protein antibodies was added to the culture and incubated at room temperature under continuous stirring for 2 h. Then, cells were again washed with buffer, secondary anti-mouse antibodies were added, and the cells were incubated under continuous stirring for 2 h. […] After 5 min, the reaction was stopped with 0.1 M sulfuric acid, and optical density of the solution was measured at a wavelength of 450 nm. Wells with absorbance values two fold or greater than the cell control were considered to be […]. The virus titer was calculated using the Reed and Muench method. […]

[1] = Cytotoxicity on non-infected HEp-2 cells, MTT assay; type: cell-based; conditions: human, non-infected HEp-2 cells, CC50 (50% cytotoxic concentration), MTT, 24 h
RSV A strain A2 = test: Antiviral activity against RSV A strain A2 in HEp-2 cells (ELISA virus titer); type: cell-based, respiratory syncytial virus
RSV A2 virus = test: Time-of-addition assay; type: cell-based, respiratory syncytial virus; conditions: 300 μg/mL, RSV A2, titer by ELISA
Experimental: Compounds 14e and 14b at a concentration of 300 μg/mL were added at different time intervals before, after, or during virus inoculation (Figure 2 and Figure 3). The time of compound addition was counted off from Point 0, i.e., the moment of virus entry into the cell. RSV A2 virus was added to cells at a time conventionally designated as […]; then, cells were kept at a temperature of 40 °C for 1 h. Next, at Point 0, unbound virus was washed off, fresh medium containing compounds at the same concentration was added, and the cells were transferred to a thermostat at 37 °C where they were incubated for 25 h. After this, medium collected from each well was used to make a series of ten-fold dilutions with fresh cell culture. The cells were incubated for 6 days. The viral titer was measured by ELISA.
Compounds were added at different time points before, after, or simultaneously with the introduction of the virus. The time of addition of the compounds was counted from Point 0, i.e., the time of entry of the virus into the cell. During the period (−1)–0, the cells together with the virus were incubated at 40 °C. All other experiments were carried out at 37 °C. RSV virus A […] was added to the cells at a time that was conventionally designated as […], after which the cells were kept for an hour at a temperature of 40 °C. Then, at Point 0, the virus was unbound. […]

CC1(C)[C@H]2CC=C(CCCOc3ccc4c(-c5ccccc5)cc(=O)oc4c3)[C@@H]1C2 [Compound 14e, 7-(3-((1R,5S)-6,6-Dimethylbicyclo[3.1.1]hept-2-en-2-yl)propoxy)-4-phenyl-2H-chromen-2-one]
EC50 (RSV type B): 3 ± 0.2 µM
CC50 at 24 h [1]: 1440 ± 85.1 µM
antiviral activity against RSV A (in words) (RSV A strain A2; RSV A, HEp-2 cells): inhibiting virus replication at low micromolar concentrations
IC50 (RSV A strain A2; human respiratory syncytial virus, HEp-2, RSV A, from Table 1 values, read-out: pIC50 (-lg[IC50]) (converted)): 7.59 µM
EC50 (RSV A strain A2; human respiratory syncytial virus, HEp-2, read-out: EC50 (50% effective concentration)): 7.5 ± 0.4 µM
effect on viral titer depending on time of addition (in words) (RSV A2 virus): reduced the viral titer upon addition at all time periods through 6 h after infection
